Values joined by “and” are separate entries in the source; they are usually repeats but may differ in a detail not shown here. Equal values may be shown once.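 Protocol summary: plate cells (96-well), add compound at 5 concentrations, incubate 48 h, interpolate endpoints linearly. GI50 is the concentration that inhibits growth by half. TGI marks complete inhibition of growth.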
Key:
Test in all cases: growth of human tumour cells (NCI), 48 h
[1] = test system: COLO 205 colon
[2] = test system: SF-295 CNS
[3] = test system: TK-10 renal
[4] = test system: MALME-3M melanoma
[5] = test system: HCT-15 colon
[6] = test system: NCI-H23 lung
[7] = test system: SK-MEL-28 melanoma
[8] = test system: ACHN renal
[9] = test system: OVCAR-5 ovarian
[10] = test system: RXF 393 renal

Structure (SMILES) | TGI [1] [µM] | TGI [2] | TGI [3] [µM] | TGI [4] [µM] | TGI [5] [µM] | TGI [6] [µM] | TGI [7] [µM] | TGI [8] [µM] | TGI [9] [µM] | TGI [10] | GI50 [3] | GI50 [6] | GI50 [10]
O/N=C1\C/C(=N\O)c2c(Br)sc(Br)c21 | > 100 | > 100 µM | > 100 | > 100 | 41.7 | 59.3 | 63.2 | > 100 |  |  |  |  | 
COc1cc2nc(-c3cccs3)nc(Nc3ccccc3C(=O)NN)c2cc1OC | > 100 | > 100 µM | > 100 | > 100 | > 100 | > 100 | > 100 | > 100 | > 100 |  |  |  | 
CC(C)OC1=C(CC2(C)OCCO2)C(=O)C12OCCO2 | > 100 | > 100 µM | > 100 |  | > 100 | > 100 | > 100 | > 100 | > 100 |  |  |  | 
Cc1cc2nc3c(C#N)c(C)c(CCCl)c(Cl)n3c2cc1C | 14.8 | 13.8 µM | 4.24 | 9.28 | 3.85 | 5.29 | 15.5 | 11.1 | 5.86 |  |  |  | 
COC(=O)N[C@@H]1C[C@H]2CC[C@]1(O[Si](C(C)C)(C(C)C)C(C)C)C(=O)C2 | > 100 | 39.7 µM | 30.6 |  | 41.4 | 39.3 | 36.8 | 45.7 | 45.3 |  |  |  | 
O=c1c(O)c(-c2ccccc2)oc2c(CP(=O)(O)O)cccc12 | > 100 | > 100 µM | > 100 | > 100 | > 100 | > 100 |  |  | > 100 | > 100 µM |  |  | 
N#Cc1ccc(-c2ccc(Cl)cc2)n(C2OC(CO)C(O)C(O)C2O)c1=S (stereo unspecified) |  | > 100 µM and 17.9 µM | > 100 | > 100 | > 100 | > 100 | > 100 | > 100 | > 100 | > 100 µM and 51 µM | > 100 µM and 49 µM | > 100 µM and 31.8 µM | > 100 µM and 18.7 µM
O=C(O)c1cc(NCc2cc(O)ccc2O)ccc1O | > 100 | > 100 µM | > 100 |  | > 100 | > 100 | > 100 | > 100 | > 100 | > 100 µM |  |  | 
Cc1cc(C)[n+]2c(c1)C=CC2 | 68.2 | 71.8 µM | > 100 | 8.57 |  | 84.2 | > 100 | > 100 | > 100 | 25.1 µM |  |  | 
COc1cc2nc(-c3cccs3)nc(N3CCN(c4ccccc4)CC3)c2cc1OC | > 100 | > 100 µM | > 100 | > 100 | > 100 | > 100 | > 100 | > 100 | > 100 |  |  |  | 
COc1cc(C2c3cccc4cccc(c34)C3CCC(=O)N32)cc(OC)c1O (stereo unspecified) | > 50 | > 50 µM |  |  | > 50 | > 50 | > 50 | > 50 | > 50 | > 50 µM |  |  | 
COC1C(O)C(C)OC(O[C@H]2CC[C@@]3(C)C(CC[C@@H]4[C@@H]3CC[C@]3(C)[C@@H](C(C)OC5OC(CO)C(O)C(O)C5O)CC[C@]43O)C2)C1O (stereo partly specified) |  | > 25 µM | > 25 |  | > 25 | > 25 | > 25 | > 25 | > 25 |  |  |  | 
CC1(C)CC(=O)c2c(N)n[nH]c2C1 | > 100 | > 100 µM |  | > 100 |  | > 100 | > 100 | > 100 | > 100 | > 100 µM |  |  | 
COC(=O)/C=C1\C(CO[Si](C)(C)C(C)(C)C)OC(n2cc(C)c(=O)n(C)c2=O)C1O[Si](C)(C)C(C)(C)C (stereo unspecified) | > 100 | > 100 µM | > 100 | > 100 | > 100 | > 100 | > 100 | > 100 | > 100 |  |  |  | 
Clc1ccc(C2SCc3nc4ccccc4n32)cc1 (stereo unspecified) | 36.8 | > 100 µM | > 100 | 36.7 | > 100 | 48.3 | 68.1 | > 100 |  |  |  |  | 
N#CCCN(CCCCN(CCC#N)C(=O)Nc1ccccc1)C(=O)Nc1ccccc1 | > 100 | > 100 µM |  | > 100 | > 100 | > 100 | > 100 | > 100 | > 100 | > 100 µM |  |  | 
[N-]=[N+]=Nc1cc(=O)[nH]c2ccccc12 | > 100 | > 100 µM | > 100 | > 100 |  | > 100 | > 100 | > 100 | > 100 | > 100 µM |  |  | 
COc1ccc(NC(=O)CSC(=O)c2ccccc2)c(SCCSSCCSc2cc(OC)ccc2NC(=O)CSC(=O)c2ccccc2)c1 | 24.2 | > 100 µM | > 100 | > 100 | > 100 | > 100 |  | > 100 | > 100 | > 100 µM |  |  | 
COc1cc(C(c2ccccc2)N2C(=O)CC[C@H]2C(=O)O)cc(OC)c1OC (stereo partly specified) | > 100 | > 100 µM | > 100 | > 100 | > 100 | > 100 | > 100 | > 100 | > 100 |  |  |  | 
Cc1nc(N)c(N2CCN(S(=O)(=O)N(Cc3ccccc3)Cc3ccccc3)CC2)c(=O)[nH]1 | 65.9 | 65.8 µM | 59 | 56.6 | > 100 | 47.8 | 34.1 | 85.1 | 73.5 |  |  |  | 
O=S(=O)(O)c1ccc(O)c(N=Nc2c(O)ccc3ccccc23)c1 | > 100 | > 100 µM | > 100 |  | > 100 | > 100 | > 100 |  | > 100 | > 100 µM |  |  | 
OCc1ccc2c(c1)CC1(Cc3ccccc3C1)C2 | 31.2 | 40.6 µM | 61.5 | 29.4 | > 100 | 82.3 | 49.6 | 57.7 |  | 36.2 µM |  |  | 

From PubChem BioAssay (NCI)
